Data taken from patent US20250163104A1, “MACROCYCLIC IMMUNOMODULATORS” (priority 2021, published 2025).
*1 amine or outer side, *2 acyl side, *3 side chain or, on linkers, in order; H or OH if unused. Where a SMILES comes first, the peptide text is derived from it. Bridges are numbered along the chain shown (N, C = ends). [ ]: non-standard residue; d: D form. The star is where a group is joined. Ala(6-(2-MePh)pyridin-3-yl) = Cc1ccccc1-c1ccc(C[C@H](N)C(=O)O)cn1; Phe(4-(2-Et-4-HO-Ph)) = CCc1cc(O)ccc1-c1ccc(C[C@H](N)C(=O)O)cc1; Bip(4'-COOH) = N[C@@H](Cc1ccc(-c2ccc(C(=O)O)cc2)cc1)C(=O)O; Phe(4-(3-Py)) = N[C@@H](Cc1ccc(-c2cccnc2)cc1)C(=O)O; X10 = CCc1ccccc1-c1ccc(C[C@H](N[*:1])C(=O)[*:2])cc1; Phe(3-CF3) = N[C@@H](Cc1cccc(C(F)(F)F)c1)C(=O)O; Ala(morpholin-4-yl) = N[C@@H](CN1CCOCC1)C(=O)O; Phe(4-COOH) = N[C@@H](Cc1ccc(C(=O)O)cc1)C(=O)O; Tyr(Ph) = N[C@@H](Cc1ccc(Oc2ccccc2)cc1)C(=O)O; Bip = N[C@@H](Cc1ccc(-c2ccccc2)cc1)C(=O)O; Phe(3-Me) = Cc1cccc(C[C@H](N)C(=O)O)c1; Cha = N[C@@H](CC1CCCCC1)C(=O)O; Carboxymethyl = O=C(O)C*; Orn = NCCC[C@H](N)C(=O)O; Dab = NCC[C@H](N)C(=O)O; X1 = C1CCC(*)CC1

target: T1, human PD-1 / PD-L1-Ig binding on Jurkat cell line over-expressing human PD-1 (Jurkat-PD-1) (Homo sapiens, UniProt Q15116); assay: Jurkat-PD-1 Cell Binding High-Content Screening Assay (CBA); assay type: cell-based; conditions: Jurkat-PD-1 cells, PE-labeled PD-L1-Ig 20 nM final; read-out: Jurkat HPD1_PDL1 IC50
T1 construct: expressed in transfected cells; host or cells: Jurkat
T1 sequence (Q15116 25-288): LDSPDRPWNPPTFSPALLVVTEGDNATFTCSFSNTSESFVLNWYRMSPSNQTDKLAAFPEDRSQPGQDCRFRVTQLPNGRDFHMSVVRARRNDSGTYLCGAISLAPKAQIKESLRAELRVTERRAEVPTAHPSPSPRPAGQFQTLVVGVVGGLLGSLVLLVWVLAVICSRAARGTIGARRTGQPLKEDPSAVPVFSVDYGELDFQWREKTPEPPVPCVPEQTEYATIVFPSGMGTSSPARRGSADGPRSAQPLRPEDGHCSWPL
Summary of the method: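 Binding of fluorescent PD-L1-Ig (phycoerythrin linked via the Ig tag, 20 nM final) to PD-1-overexpressing Jurkat cells was imaged after a 2 h, 37° C compound pretreatment and 1 hour ligand incubation.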

Structure (SMILES)	IC50
CC(C)C[C@H]1NC(=O)[C@H](CCCN)NC(=O)[C@H](Cc2ccc(OCC(=O)O)cc2)NC(=O)[C@H](Cc2ccc(-c3ccccc3)cc2)NC(=O)[C@H](Cc2ccc(C(=O)O)cc2)NC(=O)[C@H](Cc2cccc(C(F)(F)F)c2)NC(=O)[C@H](CC(N)=O)NC(=O)[C@H](Cc2ccc(OCC(=O)O)cc2)NC(=O)[C@H](CN2CCOCC2)NC(=O)CSC[C@@H](C(=O)N[C@@H](CCN)C(N)=O)NC(=O)[C@H](CO)NC(=O)[C@H](C(C)C)NC(=O)[C@H](CC2CCCCC2)NC(=O)[C@H](CCN)NC1=O [Example 2724] ({CH2CO}-[Ala(morpholin-4-yl)]Y(Carboxymethyl)N[Phe(3-CF3)][Phe(4-COOH)][Bip]Y(Carboxymethyl)[Orn][dL][Dab][Cha]VSC[Dab]-NH2; thioether N-14)	35.3 nM
Cc1cccc(C[C@@H]2NC(=O)[C@H](CC(N)=O)NC(=O)[C@H](Cc3ccc(OCC(=O)O)cc3)NC(=O)[C@H](CN3CCOCC3)NC(=O)CSC[C@@H](C(=O)N[C@@H](CCN)C(N)=O)NC(=O)[C@H](CCCN)NC(=O)[C@H](C(C)C)NC(=O)[C@H](CC3CCCCC3)NC(=O)[C@H](CCN)NC(=O)[C@@H](CC(C)C)NC(=O)[C@H](CCCN)NC(=O)[C@H](CCCN)NC(=O)[C@H](Cc3ccc(-c4ccccc4)cc3)NC(=O)[C@H](Cc3ccc(C(=O)O)cc3)NC2=O)c1 [Example 2725] ({CH2CO}-[Ala(morpholin-4-yl)]Y(Carboxymethyl)N[Phe(3-Me)][Phe(4-COOH)][Bip][Orn][Orn][dL][Dab][Cha]V[Orn]C[Dab]-NH2; thioether N-14)	48.1 nM
CC(C)C[C@H]1NC(=O)[C@H](CCCN)NC(=O)[C@H](CCCN)NC(=O)[C@H](Cc2ccc(-c3ccccc3)cc2)NC(=O)[C@H](Cc2ccc(C(=O)O)cc2)NC(=O)[C@H](Cc2cccc(C(F)(F)F)c2)NC(=O)[C@H](CC(N)=O)NC(=O)[C@H](Cc2ccc(OCC(=O)O)cc2)NC(=O)[C@H](CN2CCOCC2)NC(=O)CSC[C@@H](C(=O)N[C@@H](CCN)C(N)=O)NC(=O)[C@H](CCCN)NC(=O)[C@H](C(C)C)NC(=O)[C@H](CC2CCCCC2)NC(=O)[C@H](CCN)NC1=O [Example 2726] ({CH2CO}-[Ala(morpholin-4-yl)]Y(Carboxymethyl)N[Phe(3-CF3)][Phe(4-COOH)][Bip][Orn][Orn][dL][Dab][Cha]V[Orn]C[Dab]-NH2; thioether N-14)	65.5 nM
Cc1cccc(C[C@@H]2NC(=O)[C@H](CC(N)=O)NC(=O)[C@H](Cc3ccc(C(=O)O)cc3)NC(=O)[C@H](CN3CCOCC3)NC(=O)CSC[C@@H](C(=O)N[C@@H](CCN)C(N)=O)NC(=O)[C@H](CCCN)NC(=O)[C@H](C(C)C)NC(=O)[C@H](CC3CCCCC3)NC(=O)[C@H](CCN)NC(=O)[C@@H](CC(C)C)NC(=O)[C@H](CCCN)NC(=O)[C@H](CCCN)NC(=O)[C@H](Cc3ccc(-c4ccccc4)cc3)NC(=O)[C@H](Cc3ccc(C(=O)O)cc3)NC2=O)c1 [Example 2727] ({CH2CO}-[Ala(morpholin-4-yl)][Phe(4-COOH)]N[Phe(3-Me)][Phe(4-COOH)][Bip][Orn][Orn][dL][Dab][Cha]V[Orn]C[Dab]-NH2; thioether N-14)	348 nM
CC(C)C[C@H]1NC(=O)[C@H](CCCN)NC(=O)[C@H](CCCN)NC(=O)[C@H](Cc2ccc(-c3ccccc3)cc2)NC(=O)[C@H](Cc2ccc(C(=O)O)cc2)NC(=O)[C@H](Cc2cccc(C(F)(F)F)c2)NC(=O)[C@H](CC(N)=O)NC(=O)[C@H](Cc2ccc(C(=O)O)cc2)NC(=O)[C@H](CN2CCOCC2)NC(=O)CSC[C@@H](C(=O)N[C@@H](CCN)C(N)=O)NC(=O)[C@H](CCCN)NC(=O)[C@H](C(C)C)NC(=O)[C@H](CC2CCCCC2)NC(=O)[C@H](CCN)NC1=O [Example 2728] ({CH2CO}-[Ala(morpholin-4-yl)][Phe(4-COOH)]N[Phe(3-CF3)][Phe(4-COOH)][Bip][Orn][Orn][dL][Dab][Cha]V[Orn]C[Dab]-NH2; thioether N-14)	964 nM
CC(C)C[C@H]1NC(=O)[C@H](CCCN)NC(=O)[C@H](Cc2ccc(C(=O)O)cc2)NC(=O)[C@H](Cc2ccc(-c3ccccc3)cc2)NC(=O)[C@H](Cc2ccc(OC3CCCCC3)cc2)NC(=O)[C@H](Cc2cccc(C(F)(F)F)c2)NC(=O)[C@H](CC(=O)O)NC(=O)[C@H](Cc2ccc(C(=O)O)cc2)NC(=O)[C@H](CN2CCOCC2)NC(=O)CSC[C@@H](C(=O)N[C@@H](CCN)C(N)=O)NC(=O)[C@H](CCC(=O)O)NC(=O)[C@H](C(C)C)NC(=O)[C@H](CC2CCCCC2)NC(=O)[C@H](CCN)NC1=O [Example 2729] ({CH2CO}-[Ala(morpholin-4-yl)][Phe(4-COOH)]D[Phe(3-CF3)]Y(X1)[Bip][Phe(4-COOH)][Orn][dL][Dab][Cha]VEC[Dab]-NH2; thioether N-14)	2 nM
CC(C)C[C@H]1NC(=O)[C@H](CCCN)NC(=O)[C@H](Cc2ccc(C(=O)O)cc2)NC(=O)[C@H](Cc2ccc(-c3ccccc3)cc2)NC(=O)[C@H](Cc2ccc(Oc3ccccc3)cc2)NC(=O)[C@H](Cc2cccc(C(F)(F)F)c2)NC(=O)[C@H](CC(=O)O)NC(=O)[C@H](Cc2ccc(C(=O)O)cc2)NC(=O)[C@H](CN2CCOCC2)NC(=O)CSC[C@@H](C(=O)N[C@@H](CCN)C(N)=O)NC(=O)[C@H](CCC(=O)O)NC(=O)[C@H](C(C)C)NC(=O)[C@H](CC2CCCCC2)NC(=O)[C@H](CCN)NC1=O [Example 2730] ({CH2CO}-[Ala(morpholin-4-yl)][Phe(4-COOH)]D[Phe(3-CF3)][Tyr(Ph)][Bip][Phe(4-COOH)][Orn][dL][Dab][Cha]VEC[Dab]-NH2; thioether N-14)	94 nM
CC(C)C[C@H]1NC(=O)[C@H](CCCN)NC(=O)[C@H](Cc2ccc(C(=O)O)cc2)NC(=O)[C@H](Cc2ccc(-c3ccccc3)cc2)NC(=O)[C@H](Cc2ccc(-c3cccnc3)cc2)NC(=O)[C@H](Cc2cccc(C(F)(F)F)c2)NC(=O)[C@H](CC(=O)O)NC(=O)[C@H](Cc2ccc(C(=O)O)cc2)NC(=O)[C@H](CN2CCOCC2)NC(=O)CSC[C@@H](C(=O)N[C@@H](CCN)C(N)=O)NC(=O)[C@H](CCC(=O)O)NC(=O)[C@H](C(C)C)NC(=O)[C@H](CC2CCCCC2)NC(=O)[C@H](CCN)NC1=O [Example 2731] ({CH2CO}-[Ala(morpholin-4-yl)][Phe(4-COOH)]D[Phe(3-CF3)][Phe(4-(3-Py))][Bip][Phe(4-COOH)][Orn][dL][Dab][Cha]VEC[Dab]-NH2; thioether N-14)	1.5 nM
Cc1ccccc1-c1ccc(C[C@@H]2NC(=O)[C@H](Cc3cccc(C(F)(F)F)c3)NC(=O)[C@H](CC(=O)O)NC(=O)[C@H](Cc3ccc(C(=O)O)cc3)NC(=O)[C@H](CN3CCOCC3)NC(=O)CSC[C@@H](C(=O)N[C@@H](CCN)C(N)=O)NC(=O)[C@H](CCC(=O)O)NC(=O)[C@H](C(C)C)NC(=O)[C@H](CC3CCCCC3)NC(=O)[C@H](CCN)NC(=O)[C@@H](CC(C)C)NC(=O)[C@H](CCCN)NC(=O)[C@H](Cc3ccc(C(=O)O)cc3)NC(=O)[C@H](Cc3ccc(-c4ccccc4)cc3)NC2=O)cn1 [Example 2732] ({CH2CO}-[Ala(morpholin-4-yl)][Phe(4-COOH)]D[Phe(3-CF3)][Ala(6-(2-MePh)pyridin-3-yl)][Bip][Phe(4-COOH)][Orn][dL][Dab][Cha]VEC[Dab]-NH2; thioether N-14)	1.7 nM
CCc1cc(O)ccc1-c1ccc(C[C@@H]2NC(=O)[C@H](Cc3cccc(C(F)(F)F)c3)NC(=O)[C@H](CC(=O)O)NC(=O)[C@H](Cc3ccc(C(=O)O)cc3)NC(=O)[C@H](CN3CCOCC3)NC(=O)CSC[C@@H](C(=O)N[C@@H](CCN)C(N)=O)NC(=O)[C@H](CCC(=O)O)NC(=O)[C@H](C(C)C)NC(=O)[C@H](CC3CCCCC3)NC(=O)[C@H](CCN)NC(=O)[C@@H](CC(C)C)NC(=O)[C@H](CCCN)NC(=O)[C@H](Cc3ccc(C(=O)O)cc3)NC(=O)[C@H](Cc3ccc(-c4ccccc4)cc3)NC2=O)cc1 [Example 2733] ({CH2CO}-[Ala(morpholin-4-yl)][Phe(4-COOH)]D[Phe(3-CF3)][Phe(4-(2-Et-4-HO-Ph))][Bip][Phe(4-COOH)][Orn][dL][Dab][Cha]VEC[Dab]-NH2; thioether N-14)	2.5 nM
CCc1ccccc1-c1ccc(C[C@@H]2NC(=O)[C@H](Cc3cccc(C(F)(F)F)c3)NC(=O)[C@H](CC(=O)O)NC(=O)[C@H](Cc3ccc(C(=O)O)cc3)NC(=O)[C@H](CN3CCOCC3)NC(=O)CSC[C@@H](C(=O)N[C@@H](CCN)C(N)=O)NC(=O)[C@H](CCC(=O)O)NC(=O)[C@H](C(C)C)NC(=O)[C@H](CC3CCCCC3)NC(=O)[C@H](CCN)NC(=O)[C@@H](CC(C)C)NC(=O)[C@H](CCCN)NC(=O)[C@H](Cc3ccc(C(=O)O)cc3)NC(=O)[C@H](Cc3ccc(-c4ccccc4)cc3)NC2=O)cc1 [Example 2734] ({CH2CO}-[Ala(morpholin-4-yl)][Phe(4-COOH)]D[Phe(3-CF3)][X10][Bip][Phe(4-COOH)][Orn][dL][Dab][Cha]VEC[Dab]-NH2; thioether N-14)	5.7 nM
CC(C)C[C@H]1NC(=O)[C@H](CCCN)NC(=O)[C@H](Cc2ccc(C(=O)O)cc2)NC(=O)[C@H](Cc2ccc(-c3ccccc3)cc2)NC(=O)[C@H](Cc2ccc(-c3ccc(C(=O)O)cc3)cc2)NC(=O)[C@H](Cc2cccc(C(F)(F)F)c2)NC(=O)[C@H](CC(=O)O)NC(=O)[C@H](Cc2ccc(C(=O)O)cc2)NC(=O)[C@H](CN2CCOCC2)NC(=O)CSC[C@@H](C(=O)N[C@@H](CCN)C(N)=O)NC(=O)[C@H](CCC(=O)O)NC(=O)[C@H](C(C)C)NC(=O)[C@H](CC2CCCCC2)NC(=O)[C@H](CCN)NC1=O [Example 2735] ({CH2CO}-[Ala(morpholin-4-yl)][Phe(4-COOH)]D[Phe(3-CF3)][Bip(4'-COOH)][Bip][Phe(4-COOH)][Orn][dL][Dab][Cha]VEC[Dab]-NH2; thioether N-14)	2.2 nM
